Assay results: PubChem BioAssay (NCI)
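All cell lines were grown in 96-well plates and treated with compound for 48 hours. Here, GI50 denotes the concentration required for 50% inhibition of growth. TGI is the concentration that stops growth completely.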

Columns and labels:
Assay in all cases: growth of human tumour cells (NCI), 48 h
OVCAR-3 ovarian = tested on: OVCAR-3 ovarian
HOP-92 NSCLC = tested on: HOP-92 NSCLC
MALME-3M melanoma = tested on: MALME-3M melanoma
A549 NSCLC = tested on: A549 NSCLC
CCRF-CEM leukemia = tested on: CCRF-CEM leukemia
SN12C renal = tested on: SN12C renal
M14 melanoma = tested on: M14 melanoma
MOLT-4 leukemia = tested on: MOLT-4 leukemia
TK-10 renal = tested on: TK-10 renal
T-47D breast = tested on: T-47D breast

| Structure (SMILES) | GI50 (OVCAR-3 ovarian) [µM] | TGI (OVCAR-3 ovarian) [µM] | GI50 (HOP-92 NSCLC) [µM] | TGI (HOP-92 NSCLC) [µM] | GI50 (MALME-3M melanoma) [µM] | TGI (MALME-3M melanoma) [µM] | GI50 (A549 NSCLC) [µM] | TGI (A549 NSCLC) [µM] | GI50 (CCRF-CEM leukemia) [µM] | TGI (CCRF-CEM leukemia) [µM] | GI50 (SN12C renal) [µM] | TGI (SN12C renal) [µM] | GI50 (M14 melanoma) [µM] | TGI (M14 melanoma) [µM] | TGI (MOLT-4 leukemia) [µM] | TGI (TK-10 renal) [µM] | GI50 (MOLT-4 leukemia) [µM] | GI50 (TK-10 renal) [µM] | GI50 (T-47D breast) [µM] | TGI (T-47D breast) [µM] |
| --- | --- | --- | --- | --- | --- | --- | --- | --- | --- | --- | --- | --- | --- | --- | --- | --- | --- | --- | --- | --- |
| Cc1ccc(-c2csc(NC(=O)N3CCN(c4cc5c(cc4F)c(=O)c(C(=O)O)cn5C4CC4)CC3)n2)cc1 | 0.492 | 18.7 | 0.431 | 3.91 | 1.1 | 5.67 | 0.365 | > 100 | 0.451 | > 100 | 0.366 | > 100 | 1.2 | > 100 |  |  |  |  |  |  |
| CCCN(CCC)C(=O)C(=O)c1c(N)[nH]n(-c2ccccc2)c1=O |  | > 100 |  | > 100 |  | > 100 |  | > 100 |  | > 100 |  | > 100 |  | > 100 | > 100 | > 100 |  |  |  |  |
| CCOC(=O)/C(O)=C(/C(=O)OC)c1ccc(Cl)cc1 |  | > 100 |  |  |  | > 100 |  | > 100 |  | > 100 |  | > 100 |  | > 100 | > 100 | > 100 |  |  |  |  |
| CN(C)C(=O)c1cnc2oc3ccc(O)cc3c2c1-c1ccccc1 | > 25 | > 25 | > 25 | > 25 |  |  | > 25 | > 25 |  |  |  |  | > 25 | > 25 | > 25 | > 25 | > 25 | > 25 |  |  |
| COc1cc([N+](=O)[O-])c(OC)cc1-c1nc2sccn2c1/C=N/N=C(N)N | 14.6 | 66.5 | 19.3 | 45.4 | 11 | 40.7 | 20.8 | 68.7 |  |  | 9.36 | 42.1 | 40.8 | > 100 | > 100 | 50.6 | > 100 | 18 | 22.2 | > 100 |
| COc1cccc(-c2cc3c4c(nc5ccccc53)C(=O)c3cccnc3-c4n2)c1 | 0.3 |  | 4.3 | 19.8 | 0.822 | 3.32 | 1.44 | 3.82 |  |  | 2.44 | 6.54 | 0.863 | 2.36 | > 100 | > 64.8 | 0.788 | 5.03 | 2.26 | 5.99 |
| COC(=O)C(CC1=C(O)Nc2ccccc2N1)/C(=N/NC(N)=O)C(=O)Nc1ccccc1C (configuration not stated) |  | > 100 |  | > 100 |  | > 100 |  | > 100 |  | 48.8 |  | > 100 |  | > 100 | > 100 | > 100 |  |  |  |  |
| COc1cccc(NC(=O)CC(=O)N2N=C(N3c4ccccc4Sc4ccccc43)CC2c2ccccc2)c1 (configuration not stated) |  | > 100 |  | > 100 |  | > 100 |  | > 100 |  |  |  | > 100 |  | > 100 | > 100 | > 100 |  |  |  |  |
| O=C(O)C(CS)NCc1c2ccccc2nc2ccccc12 (configuration not stated) |  | > 100 |  | 88.9 |  | > 100 |  | > 100 |  | 74.6 |  | > 100 |  |  | > 100 | > 100 |  |  |  |  |
| COc1ccc(COC2CC(OC)OC(C)C2OC(=O)c2ccccc2)cc1 (configuration not stated) |  | > 95 |  | > 100 |  | > 71.3 |  | > 100 |  | > 100 |  | > 100 |  | > 100 | 40.1 | > 100 |  |  |  |  |
